Assay results reported in patent US4698330A, “Somnogenic compositions and method of use” (President & Fellows of Harvard College, priority 1983, dated 1987).
Where “and” joins values, the source holds several entries; their conditions need not be identical. Equal values may be shown once.

Experiments:
rabbits [1] = test: Antipyretic (acetaminophen, indomethacin, aspirin) with AcMur-ala-igln in rabbits, SWS and temperature; assay type: in vivo; conditions: for suppression of the pyrogenic (febrile) effects of AcMur-ala-igln by the antipyretic: AcMur-ala-igln delivered intravenously in rabbits; for hourly % SWS (mean ±SEM): FIG. 5
Experimental: (§1) Acetaminophen (Sigma) was dissolved in sterile pyrogen-free saline.
For this reason, the less toxic acetaminophen was used to suppress the pyrogenic effects of AcMur-ala-igln.
In FIG. 5, the symbols mean the following: , AAP alone; , AAP followed by 120 μg of AcMur-ala-igln intravanously at time zero. Each value is mean ±SEM of six assays in six rabbits. In A, the average of the individual increases (ΔT values) in rectal temperature induced by AcMur-ala-igln together with AAP is compared with that induced by AAP alone in each of six rabbits.

rabbits [2] = test: Intraventricular infusion in rabbits, EEG slow-wave sleep (SWS); conditions: for % SWS, 6 hr post infusion, Expt / % SWS Expt.: hr 2-6 after infusion; for % SWS, 6 hr post infusion, Expt: mean ± SEM or range
Experimental: Calibrated glass bead thermistors (Fenwall; 1.2-mm outside diameter, 50 omega/°C.) were implanted through burr holes in frontal bone: the thermistor leads were buried in a mound of dental cement that also insulated the screw electrodes and supported a 9-pin miniature electrical connector. In some experiments, the rectal temperatures were measured at intervals by using a calibrated thermistor probe; temperatures estimated from the implanted brain thermistors were generally within 0.3° C. of simultaneously recorded rectal temperature.
New Zealand rabbits (male, 3-5 kg) or domestic cats were adapted to the infusion cages in a temperature-controlled room (21°-2° C.) on a 12:12 light/dark cycle. Intraventricular infusions or systemic injections were carried out between 0800 and 1000 hr and were followed by 6 or more hr of recording without disturbing the animals.
(§3) EEG, electro-oculogram, and bodily movements were recorded on Grass polygraphs. The amplitude of EEG slow waves was recorded as the rms-rectified output from a 0.5- to 4-Hz bandpass filter (Bunco Electronics, Sharon, (T); the rms component was integrated and the integral was printed on tape every 2 min, thus providing an objective measure of the product of amplitude and duration of EEG slow waves. Each record was also analyzed visually for duration of SWS in rabbits and for both SWS and REM sleep in cats. The infusion and recording systems and examples of analysis of records are described in 1, 12, 15.

rabbits [3] = test: Toxic reactions to indomethacin alone in rabbits; assay type: in vivo, rabbit; conditions: doses as low as 1 mg/kg
Experimental: (§2) The time course of the pyrogenic response to AcMur-ala-igln was sometimes quite different from that of the somnogenic response and, in some animals, the natural muramyl peptide isolated from urine induced substantial excess SWS without significant alteration of temperature. […] In preliminary experiments, indomethacin was used as an antipyretic because Parant et al. (7) had shown that this drug (in doses of 40 mg/kg) was effective in blocking the pyrogenic response to intravanously administered AcMur-ala-igln. […] For this reason, the less toxic acetaminophen was used to suppress the pyrogenic effects of AcMur-ala-igln. The results for six rabbits injected intravanously with AcMur-ala-igln at 120 μg/kg 30 min after intravanous injection of acetaminophen at 10 mg/kg are summarized in FIG. 5. It is clear that, under these conditions a substantial somnogenic effect was obtained for 3 to 4 hr with only a weak associated febrile response. In some animals, there was no significant increase in temperature during the sleep response.

cats [4] = test: Toxic reactions to indomethacin alone in cats; assay type: in vivo, cat; conditions: doses as low as 1 mg/kg
Experimental: as §2

rabbits [5] = test: Intraperitoneal injection / stomach tube administration in rabbits, sleep response; assay type: in vivo, rabbit; conditions: two rabbits, intraperitoneal injection / stomach tube (5 mg/kg)
Experimental: In two rabbits, sleep responses were recorded after intraperitoneal injection of AcMur-ala-igln by stomach tube (5 mg/kg).

squirrel monkey = conditions: cited abstract (reference 2); cited from earlier work
cats [6] = test: Intraventricular infusion in cats, SWS, REM sleep and brain temperature; assay type: in vivo, cat; conditions: intraventricular 200-500 pmol, four cats
Experimental: as §1
Each of four cats was infused intraventricularly one or more times with AcMur-ala-igln or AcMur-ala-igln-lys (200-500 pmol). The responses were more complex than those in rabbits. […] Only after the febrile response had reached its peak did the cats start to sleep for abnormally long periods in deep stage II SWS alternating with periods of REM sleep. The SWS and temperature responses of one cat to 250 pmol of AcMur-ala-igln-lys delivered intraventricularly during 15 min prior to start of recording is shown in FIG. 3. […] A similar delay in the onset of excess SWS was noted by Garcia-Arraras (12) after infusion of natural sleep factor in cats.
Excess SWS induced by AcMur-ala-igln-lys lasted for 3-8 hr after infusion. (A) - - - , Control=37.7 plus or minus 0.2° C. (B) - - - , Control=27 plus or minus 5%. Similar responses were observed following one or more infusions of AcMur-ala-igln or AcMur-ala-igln-lys in each of four cats.

rabbits [7] = test: Intravenous injection in rabbits, SWS and side effects
Experimental: New Zealand rabbits (male, 3-5 kg) or domestic cats were adapted to the infusion cages in a temperature-controlled room (21°-2° C.) on a 12:12 light/dark cycle. Intraventricular infusions or systemic injections were carried out between 0800 and 1000 hr and were followed by 6 or more hr of recording without disturbing the animals. […] Indomethacin for intravenous injection was dissolved in a small amount of EtOH and diluted with 150 mM NaHCO3 to a concentration of 5 mg/ml. Acetaminophen (Sigma) was dissolved in sterile pyrogen-free saline.
as §3
Each value is mean ±SEM of 11 assays in eight rabbits.

rabbits [8] = test: Brain/body temperature (pyrogenic response) after intraventricular infusion in rabbits; assay type: in vivo, rabbit; conditions: for ΔTmax, maximum increase in temperature: intraventricular, brain temperature, single rabbits, listed as AcMur--Ala--iGln
Experimental: as §1

[9] = intraventricular, dose 0.2 nmol
[10] = intraventricular, dose 2.0 nmol
[11] = intraventricular, dose 0.5 nmol
[12] = intraventricular, dose 1.0 nmol
[13] = much smaller doses delivered intraventricularly

CC(=O)Oc1ccccc1C(=O)O [aspirin, acetyl salicylic acid]
suppression of the pyrogenic (febrile) effects of AcMur-ala-igln by the antipyretic (rabbits [1]): like suppression of the febrile response

CC(=O)N[C@H]1C(O)O[C@H](CO)[C@@H](O)[C@@H]1O[C@H](C)C(=O)N[C@@H](C)C(=O)N[C@H](CCC(=O)N[C@@H](CCC[C@@H](N)C(=O)O)C(=O)N[C@H](C)C(=O)N[C@H](C)C(=O)O)C(=O)O (stereo partly drawn) [NAc-Mur-L-ala-gamma-D-glu-m-DAP-D-ala-D-ala]
% SWS, 6 hr post infusion, Expt (rabbits [2]; intraventricular, dose 0.15 nmol): 46 ± 3% | % SWS, 6 hr post infusion, Expt (rabbits [2]; [9]): 65 ± 5%

CC(=O)N[C@H]1C(O)O[C@H](CO)[C@@H](O)[C@@H]1O[C@H](C)C(=O)N[C@@H](C)C(=O)N[C@H](CCC(N)=O)C(=O)O (stereo partly drawn) [NAc--Mur--L-ala-D-gln, NAc-Mur-L-ala-D-gln]
% SWS, 6 hr post infusion, Expt (rabbits [2]; [10]): 45 ± 1% | % SWS, 6 hr post infusion, Expt (rabbits [2]; intraventricular, dose 20.0 nmol): 58-66%

CC(=O)N[C@H]1C(O)O[C@H](CO)[C@@H](O)[C@@H]1O[C@H](C)C(=O)N[C@@H](C)C(=O)N[C@H](CCC(N)=O)C(N)=O (stereo partly drawn) [NAc--Mur--L-ala-D-glu(NH2)--NH2]
% SWS, 6 hr post infusion, Expt (rabbits [2]; [10]): 43 ± 1%

COC(=O)CC[C@@H](NC(=O)[C@H](C)NC(=O)[C@@H](C)O[C@H]1[C@H](O)[C@@H](CO)OC(O)[C@@H]1NC(C)=O)C(N)=O (stereo partly drawn) [NAc--Mur--L-ala-D-igln-gamma-OMe, NAc-Mur-L-ala-D-igln-gamma-OMe]
% SWS, 6 hr post infusion, Expt (rabbits [2]; [10]): 56 ± 7%

COC(=O)[C@@H](CCC(N)=O)NC(=O)[C@H](C)NC(=O)[C@@H](C)O[C@H]1[C@H](O)[C@@H](CO)OC(O)[C@@H]1NC(C)=O (stereo partly drawn) [NAc--Mur--L-ala-D-gln-alpha OMe]
% SWS, 6 hr post infusion, Expt (rabbits [2]; [11]): 31-45%

CC(=O)N[C@H]1C(O)O[C@H](CO)[C@@H](O)[C@@H]1O[C@H](C)C(=O)N(C)[C@@H](C)C(=O)N[C@H](CCC(=O)O)C(N)=O (stereo partly drawn) [NAc--Mur--(N--Me)--L-ala-D-igln]
% SWS, 6 hr post infusion, Expt (rabbits [2]; [9]): 32-47%

COc1ccc2c(c1)c(CC(=O)O)c(C)n2C(=O)c1ccc(Cl)cc1 [indomethacin]
toxic reactions (diarrhea, lethargy, inhibition of normal sleep) (rabbits [3]): toxic reactions | blocking of the pyrogenic or somnogenic effects of intraventricularly administered AcMur-ala-igln (rabbits [1]; indomethacin: 10 out of 10 trials in six rabbits, acetaminophen: two rabbits): did not block | toxic reactions (diarrhea, lethargy, inhibition of normal sleep) (cats [4]): toxic reactions

COC(=O)[C@@H](CCC(=O)O)NC(=O)[C@H](C)NC(=O)[C@@H](C)O[C@H]1[C@H](O)[C@@H](CO)OC(O)[C@@H]1NC(C)=O (stereo partly drawn) [NAc--Mur--L-ala-D-glu-alpha-OMe, NAc-Mur-L-ala-D-glu-alpha-OMe]
% SWS, 6 hr post infusion, Expt (rabbits [2]; [9]): 47-61% | % SWS, 6 hr post infusion, Expt (rabbits [2]; [10]): 72 ± 4%

CC(=O)N[C@H]1C(O)O[C@H](CO)[C@@H](O)[C@@H]1O[C@H](C)C(=O)N[C@@H](C)C(=O)N[C@@H](CCC(=O)O)C(N)=O (stereo partly drawn) [NAc--Mur--L-ala-L-igln]
% SWS, 6 hr post infusion, Expt (rabbits [2]; [9]): 38 ± 4%

CCCCOC(=O)[C@@H](CCC(N)=O)NC(=O)[C@H](C)NC(=O)[C@@H](C)O[C@H]1[C@H](O)[C@@H](CO)OC(O)[C@@H]1NC(C)=O (stereo partly drawn) [NAc--Mur--L-ala-D-gln-n-Bu ester]
% SWS, 6 hr post infusion, Expt (rabbits [2]; intraventricular, dose 0.25 nmol): 41-47%

CC(=O)N[C@H]1C(O)O[C@H](CO)[C@@H](O)[C@@H]1O[C@H](C)C(=O)O (some centres unmarked) [N-acetylmuramic acid, reference compound]
somnogenic effect (rabbits [2]; summary of Table 2, intraventricular, rabbits): no effect

CC(=O)N[C@@H]1[C@@H](O[C@H](C)C(=O)N[C@@H](C)C(=O)N[C@H](CCC(=O)O)C(N)=O)[C@H](O)[C@@H](CO)O[C@H]1O [MDP, 2-(2-acetamido-2-desoxy-3-O-D-glucopyranosyl)-D-propionyl-L-alanyl-D-isoglutamine]
increase of SWS for 6 hr (rabbits [5]): ca. 50% | hourly % SWS (mean ±SEM) (rabbits [1]; AAP 10 mg/kg i.v. followed 30 min later by AcMur-ala-igln 120 μg i.v., six rabbits): 67±3% | time after which toxic reactions developed (rabbits [1]; AcMur-ala-igln 120 μg/kg i.v. after acetaminophen 10 mg/kg i.v.): about 4 hr | average ΔT, rectal temperature (rabbits [1]; AcMur-ala-igln i.v. with AAP, six rabbits): less than 0.7 °C | effect on non-REM and REM sleep (squirrel monkey): induces non-REM but not REM sleep | REM sleep during 2-4 hr after the infusion (cats [6]): completely suppressed | SWS after the initial period of sleep suppression (cats [6]): abnormally long period of deep SWS | time of return of sleep response to near control values (rabbits [7]; intravenous 150-200 nmol/kg): ≤ 5 h | time of maximum sleep response after injection (rabbits [7]; intravenous 150-200 nmol/kg (75-100 μg), FIG. 4): about 3 hr | side effects noted in some animals (rabbits [7]; intravenous 150-200 nmol/kg, after 3 to 4 hr): abnormal lacrimation, nasal secretion, and inflammation | time after which deleterious side effects occurred (rabbits [7]; intravenous, doses sufficient to induce excess SWS and pyrexia): about 3 hr | average ΔT (rabbits [8]; AcMur-ala-igln alone (Table 1)): 1.9±0.2 °C | ΔTmax, maximum increase in temperature (rabbits [8]; dose 75 pmol): 2.8 °C and 1.6 °C | ΔTmax, maximum increase in temperature (rabbits [8]; dose 125 pmol): 1.1 °C and 1.5 °C | number of episodes of SWS having durations of 1-8 min (rabbits [2]; hr 2 to hr 6 after administration, eight rabbits, FIG. 2): no significant effect | number of episodes of SWS having durations greater than 8 min (rabbits [2]; hr 2 to hr 6 after administration, eight rabbits, FIG. 2, P<0.0125): increased | amount required to induce a comparable increase of SWS for 6 hr, relative to the natural product (factor S) (rabbits [2]; intraventricular): roughly 10 times | hourly percentage of SWS (rabbits [2]; intraventricular 75-150 pmol, for 6 hr or more after the infusion, control about 40%): about 60% | persistence of the effects (rabbits [2]; intraventricular infusion): 6 to 12 h | % SWS, 6 hr post infusion, Expt (rabbits [2]; intraventricular, dose 0.01 nmol): 39 ± 4% | % SWS, 6 hr post infusion, Expt (rabbits [2]; intraventricular, dose 0.05 nmol): 49 ± 3% | % SWS Expt. (rabbits [2]; intraventricular, dose 75 pmol, single rabbits, listed as AcMur--Ala--iGln): 55% and 43% | % SWS, 6 hr post infusion, Expt (rabbits [2]; intraventricular, dose 0.1 nmol): 62 ± 7% | % SWS Expt. (rabbits [2]; intraventricular, dose 120 pmol, single rabbits, listed as AcMur--Ala--iGln): 94% and 69% | Amplitude of slow wave, Expt. (rabbits [2]; intraventricular, dose 120 pmol, rms-rectified voltage of 0.5 to 4 Hz band, single rabbits, listed as AcMur--Ala--iGln): 56 μV and 42 μV | % SWS Expt. (rabbits [2]; intraventricular, dose 125 pmol, single rabbits, listed as AcMur--Ala--iGln): 38% and 60% | % SWS, 6 hr post infusion, Expt (rabbits [2]; [12]): 76 ± 7% | % SWS, 6 hr post infusion, Expt (rabbits [2]; intraventricular, dose 10.0 nmol): 65 ± 6% | deleterious effects (rabbits [2]; [13]): did not cause deleterious effects | duration of excess SWS (rabbits [2]; [13]): 6 to 10 h

COC(=O)CC[C@@H](NC(=O)[C@H](C)NC(=O)C(C)O[C@H]1[C@H](O)[C@@H](CO)O[C@H](O)[C@@H]1NC(C)=O)C(=O)OC (stereo partly drawn) [NAc--Mur--L-ala-D-glu(OMe)--OMe, NAc-Mur-L-ala-D-glu(OMe)-OMe]
% SWS, 6 hr post infusion, Expt (rabbits [2]; [10]): 66 ± 4%

CC(=O)N[C@H]1C(O)O[C@H](CO)[C@@H](O)[C@@H]1O[C@H](C)C(=O)N[C@@H](C)C(=O)N[C@H](CCC(=O)O)C(=O)O (stereo partly drawn) [NAc--Mur--L-ala-D-glu, NAc-Mur-L-ala-D-glu]
% SWS, 6 hr post infusion, Expt (rabbits [2]; [9]): 43 ± 3% | % SWS, 6 hr post infusion, Expt (rabbits [2]; [10]): 51 ± 3%

CC(=O)Nc1ccc(O)cc1 [acetaminophen]
effects on sleep or rectal temperature (rabbits [1]; AAP alone): no significant effects | hourly % SWS (mean ±SEM) (rabbits [1]; AAP alone, 10 mg/kg intravenous, six rabbits): 41±3% | suppression of the pyrogenic (febrile) effects of AcMur-ala-igln by the antipyretic (rabbits [1]): completely or partially suppressed

CC(=O)NC1C(OC2C(CO)OC(O)C(NC(C)=O)C2OC(C)C(=O)NC(C)C(=O)NC(CCC(=O)O)C(N)=O)OC(CO)C(O)C1O (centres unmarked) [Nac--glc-1,4-MDP, NAc-glucosaminyl-(1,4)-MDP]
% SWS, 6 hr post infusion, Expt (rabbits [2]; [9]): 60 ± 5%

CC(=O)NC1C(O)OC(CO)C(O)C1OC(C)C(=O)NC(C)C(=O)NC(CCC(=O)O)C(N)=O [NAc--Mur--D-ala-D-igln]
% SWS, 6 hr post infusion, Expt (rabbits [2]; [11]): 35 ± 2% | % SWS, 6 hr post infusion, Expt (rabbits [2]; [12]): 35 ± 2%
